According to US6469002B1, “Imidazolidine compounds” (Millennium Pharmaceuticals, Inc., priority 2001, dated 2002):

Target: T1, CXCR3 (Homo sapiens, UniProt P49682)
T1 construct: expressed in transfected cells
T1 sequence (P49682 1-368): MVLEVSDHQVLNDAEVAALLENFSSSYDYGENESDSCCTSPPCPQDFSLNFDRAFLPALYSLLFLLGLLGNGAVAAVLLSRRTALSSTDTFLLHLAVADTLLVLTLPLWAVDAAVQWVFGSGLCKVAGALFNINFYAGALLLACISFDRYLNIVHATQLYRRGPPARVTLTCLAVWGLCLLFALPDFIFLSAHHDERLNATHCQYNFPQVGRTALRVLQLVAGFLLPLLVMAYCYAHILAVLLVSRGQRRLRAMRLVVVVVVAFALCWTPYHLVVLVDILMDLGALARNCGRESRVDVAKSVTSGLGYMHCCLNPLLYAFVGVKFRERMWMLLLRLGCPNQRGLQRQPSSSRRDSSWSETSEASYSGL
Test: CXCR3/IP-10 radioligand binding (125I-IP-10 competition, CXCR3.L1/2 cell membranes)
Settings: Table 6; test compound 10 μmol/L; 125I-labeled IP-10 binding to CXCR3.L1/2 transfectant cell membrane
Text: The activity of the compounds of the present invention can be assessed using a suitable assay, such as a receptor binding assay, a chemotaxis assays, an extracellular acidification assay or a calcium flux assay (see, for example, Hesselgesser et al., J. Biol. Chem. 273(25):15687-15692 (1998) and WO 98/02151). For example, as described herein, small organic molecule antagonists of CXCR3/IP-10 binding have been identified utilizing cells engineered to express recombinant human CXCR3 (CXCR3.L1/2) and which bind ^125I-IP-10 and chemotax in response to IP-10, Mig or I-TAC. Specifically, a high through-put receptor binding assay, which monitors ^125I-IP-10 binding to CXCR3.L1/2 cell membranes, was used to identify small molecule antagonists which block binding of IP-10, Mig or I-TAC to CXCR3.
CXCR3.L1/2 cells were pelleted by centrifugation and stored at −80° C. The cells were lysed by thawing and resuspending at about 1.5×10^7 cells/ml in a hypotonic buffer (5 m mol/L HEPES (pH 7.2), 2 mmol/L EDTA, 10 μg/ml each leupeptin, aprotinin, and chymostatin, and 100 μg/ml PMSF (all from Sigma, St. Louis)). Nuclei and cellular debris was removed by centrifugation ([…], at 4° C.) for 10 min. The supematant was transferred to chilled centrifuge tubes (Nalge, Rochester, N.Y.) and the membrane fraction was recovered by centrifugation (25,000 g at 4° C.) for 45 min. The membrane pellet was resuspended in freezing buffer (10 mM HEPES (pH 7.2), 300 mmol/L Sucrose, 5 μg/ml each of leupeptin, aprotinin, and chymostatin, and 10 μg/ml PMSF). The total protein concentration was determined using a coomassie blue staining protein concentration assay kit (BioRad). The membrane preparation was aliquoted and stored at −80° C. until time of use.
CXCR3/IP-10 binding was performed in 96-well polypropylene plates (Costar) in a final volume of 0.1 ml of HBB buffer (50 mmol/L Hepes pH 7.4, 1 mmol/L CaCl2, 5 mmol/L MgCl2, 0.02% sodium azide, 0.5% BSA (bovine serum albumin)) containing 1 to 5 μg of CXCR3.L1/2 transfectant cell membrane protein and 0.05 to 0.2 nmol/L ^125I-labeled IP-10 (NEN, Boston, Mass.). Competition binding experiments were performed by including variable concentrations of unlabeled IP-10 or test compound. Nonspecific binding was determined following the addition of a 250 nmol/L unlabelled IP-10. Samples were incubated for 60 min at room temperature, and bound and free tracer (^125I-IP10) were separated by filtration through 96-well GF/B filterplates (Packard) presoaked in 0.3% polyethyleneimine. The filters were washed in HBB further supplemented with 0.5 mol/L NaCl, dried, and the amount of bound radioactivity determined by liquid scintillation counting. The competition is presented as the percent specific binding as calculated by 100×[(S-B)/(T-B)], where S is the radioactivity bound for each sample, B is background binding, and T is total bound in the absence of competitors. Duplicates were used throughout the experiments.

| SMILES | inhibition at 10 µM [%] |
| --- | --- |
| CCN(CCN1CCN(Cc2cc(C)cc(C)c2)C1=C(C#N)C#N)C(=O)c1ccc(CN2CCCCC2)cc1 [Compound 26, 1-[2-{N-Ethyl-N-(4-(1-piperidinomethyl)benzoyl)amino}ethyl]-3-(3,5-dimethylbenzyl)-2-imidazolidinylidenepropanedinitrile] | 64 |
| CCN(CCN1CCN(Cc2cccc3ccccc23)C1=C(C#N)C#N)C(=O)c1ccc(CN2CCCCC2)cc1 [Compound 27, 1-[2-{N-Ethyl-N-(4-(1-piperidinomethyl)benzoyl)amino}ethyl]-3-(1-naphthylmethyl)-2-imidazolidinylidenepropanedinitrile] | 72 |
| CCCNCc1ccc(C(=O)N(CC)CCN2CCN(Cc3cc(Cl)cc(Cl)c3)C2=C(C#N)C#N)cc1 [Compound 30, 1-[2-{N-Ethyl-N-(4-(1-propylaminomethyl)benzoyl)amino}ethyl]-3-(3,5-dichlorobenzyl)-2-imidazolidinylidenepropanedinitrile] | 73 |

Results, then the compound that gave them:

| inhibition at 10 µM [%] | SMILES |
| --- | --- |
| 99 | CCN(CCN1CCN(C(=O)c2cc(C)cc(C)c2)C1=C(C#N)C#N)Cc1ccc(CN2CCCCC2)cc1 [Compound 25, 1-[2-{N-Ethyl-N-(4-(1-piperidinomethyl)benzyl)amino}ethyl]-3-(3,5-dimethylbenzoyl)-2-imidazolidinylidenepropanedinitrile] |
| 41 | CCN(CCN1CCN(Cc2cc(Cl)cc(Cl)c2)C1=C(C#N)C#N)C(=O)c1ccc(CN2CCCCC2)cc1 [Compound 28, 1-[2-{N-Ethyl-N-(4-(1-piperidinomethyl)benzoyl)amino}ethyl]-3-(3,5-dichlorobenzyl)-2-imidazolidinylidenepropanedinitrile] |
| 51 | CCCNCc1ccc(C(=O)N(CC)CCN2CCN(Cc3cc(C)cc(C)c3)C2=C(C#N)C#N)cc1 [Compound 29, 1-[2-{N-Ethyl-N-(4-(-1-propylaminomethyl)benzoyl)amino}ethyl]-3-(3,5-dimethylbenzyl)-2-imidazolidinylidenepropanedinitrile] |
